Experimental data from patent US12391698B2, “Substituted piperidines and piperazines and methods for the treatment of CNS disorders” (SUVEN LIFE SCIENCES LIMITED, priority 2022, dated 2025).
Structures can show the parent of a compound that is named as a salt. Where two headings read alike, the source gives them in different places.

Tests used:
[1] = target: T1, cloned human 5-HT1A receptor (Homo sapiens, UniProt P08908); experiment: Determination of Ki at 5-HT1A receptor (radioligand binding, [3H]-8-Hydroxy DPAT); conditions: HEK293-EBNA recombinant cells; [3H]-8-Hydroxy DPAT 0.8 nM; read-out: Ki h5-HT1A
T1 construct: expressed in transfected cells; host or cells: HEK293-EBNA
T1 sequence (P08908 1-422): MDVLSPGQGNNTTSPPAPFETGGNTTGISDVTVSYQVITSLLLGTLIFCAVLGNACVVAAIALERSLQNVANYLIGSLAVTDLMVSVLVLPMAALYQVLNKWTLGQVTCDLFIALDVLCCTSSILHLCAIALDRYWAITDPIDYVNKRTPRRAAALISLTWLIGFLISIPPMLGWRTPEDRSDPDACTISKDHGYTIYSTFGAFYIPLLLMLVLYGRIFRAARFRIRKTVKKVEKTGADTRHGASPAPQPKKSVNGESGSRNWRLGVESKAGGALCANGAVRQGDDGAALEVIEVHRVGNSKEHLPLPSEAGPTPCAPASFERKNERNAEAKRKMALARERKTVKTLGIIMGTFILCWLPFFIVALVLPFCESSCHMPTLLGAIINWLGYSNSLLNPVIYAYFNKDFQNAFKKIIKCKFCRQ
Method: (§1) Compounds were tested according to the following procedure.
(§2) • Receptor source: Recombinant mammalian cells (HEK293-EBNA) • Radioligand: [^3H]-8-Hydroxy DPAT (200 Ci/mmol) • Final ligand concentration: 0.8 nM • Non-specific determinant: 0.1 mM U92016A • Reference compound: U92016A • Positive control: U92016A Incubation Conditions:
(§3) Reactions were carried out in buffer with pH 7.4 containing 50 mM Tris-HCl, 0.5 mM EDTA, 10 mM MgSO4, 0.1% Ascorbic acid for 2 h at r.t. The reaction was terminated by rapid vacuum filtration onto the glass fiber filters. Radioactivity trapped onto the filters was determined and compared to the control values in order to ascertain any interactions of the test compound(s) with cloned human 5-HT1A receptor binding site.

[2] = target: T2, cloned human 5-HT2A receptor (Homo sapiens, UniProt P28223); experiment: Determination of Ki at 5-HT2A receptor (radioligand binding, [3H]-Ketanserine); conditions: CHO-K1 recombinant cells; [3H]-Ketanserine 1.25 nM; read-out: Ki h5-HT2A
T2 construct: expressed in transfected cells; host or cells: CHO-K1
T2 sequence (P28223 whole entry): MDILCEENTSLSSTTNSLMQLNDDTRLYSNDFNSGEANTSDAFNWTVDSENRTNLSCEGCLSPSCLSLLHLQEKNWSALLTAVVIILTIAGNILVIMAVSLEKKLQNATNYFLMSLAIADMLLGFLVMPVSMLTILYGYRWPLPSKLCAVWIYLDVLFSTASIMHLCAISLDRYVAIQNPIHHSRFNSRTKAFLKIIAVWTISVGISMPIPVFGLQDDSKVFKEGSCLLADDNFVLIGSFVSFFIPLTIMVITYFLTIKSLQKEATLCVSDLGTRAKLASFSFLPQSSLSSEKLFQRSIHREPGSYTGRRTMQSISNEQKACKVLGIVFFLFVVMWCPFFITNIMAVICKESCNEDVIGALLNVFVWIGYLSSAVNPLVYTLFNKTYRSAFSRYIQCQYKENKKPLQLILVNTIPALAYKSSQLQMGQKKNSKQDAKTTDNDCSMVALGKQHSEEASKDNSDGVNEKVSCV
Method: as §1
as §2, with “(CHO-K1)” for “(HEK293-EBNA)”, “[^3H]-Ketanserine (41.9” for “[^3H]-8-Hydroxy DPAT (200”, “1.25” for “0.8”, “1-Napthyl piperazine (1-NP)” for “U92016A”
as §3, with “4” for “0.5”, “CaCl2),” for “EDTA, 10 mM MgSO4,”, “1” for “2”, “5-HT2A” for “5-HT1A”

[3] = target: cloned human SERT receptor (Homo sapiens, UniProt P31645); experiment: Determination of Ki at SERT receptor (SPA binding, [3H]-Citalopram); conditions: HEK293 recombinant cells, [3H]-Citalopram 2 nM, read-out: Ki hSERT
cloned human SERT receptor, sequence (P31645 whole entry): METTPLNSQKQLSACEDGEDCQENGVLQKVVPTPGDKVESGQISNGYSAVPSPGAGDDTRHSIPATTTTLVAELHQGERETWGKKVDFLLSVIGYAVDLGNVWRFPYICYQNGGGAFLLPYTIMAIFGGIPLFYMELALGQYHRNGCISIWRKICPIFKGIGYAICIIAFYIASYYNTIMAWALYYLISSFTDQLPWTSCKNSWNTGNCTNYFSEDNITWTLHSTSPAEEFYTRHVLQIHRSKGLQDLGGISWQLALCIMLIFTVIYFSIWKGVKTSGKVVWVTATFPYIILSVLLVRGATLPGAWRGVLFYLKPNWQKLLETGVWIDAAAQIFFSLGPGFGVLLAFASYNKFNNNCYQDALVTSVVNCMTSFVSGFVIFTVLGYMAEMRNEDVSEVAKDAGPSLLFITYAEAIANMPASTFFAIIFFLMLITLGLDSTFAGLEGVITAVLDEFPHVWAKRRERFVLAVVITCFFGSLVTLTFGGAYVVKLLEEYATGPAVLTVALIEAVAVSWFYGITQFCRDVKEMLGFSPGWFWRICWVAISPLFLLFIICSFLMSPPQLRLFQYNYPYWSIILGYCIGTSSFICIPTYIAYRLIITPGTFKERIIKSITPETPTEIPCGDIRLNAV
Method: as §1
• Receptor source: Recombinant mammalian cells (HEK293) • Radioligand: [^3H]-Citalopram (80.8 Ci/mmol) • Final ligand concentration: 2 nM • Non-specific determinant: 0.1 mM Venlafaxine • Reference compound: Venlafaxine • Positive control: Venlafaxine Incubation Conditions:
Reactions were carried out in buffer with pH 7.4 containing 50 mM Tris-HCl, 150 mM NaCl, 5 mM KCl and scintillation proximity assay (SPA) beads (0.1 mg/well) for 3 h at r.t. Radioactivity proximal to SPA beads was determined by scintillation proximity assay and compared to the control values in order to ascertain any interactions of the test compound(s) with cloned human SERT receptor binding site.
Reference: Journal of Pharmacology and Experimental Therapeutics, 1987, 242 (1), 364-371.

[4] = target: T3, hD2S (cloned human dopamine D2S receptor) (Homo sapiens, UniProt P14416); experiment: Determination of Ki at D2S receptor (radioligand binding, [3H]-Raclopride); conditions: CHO-K1 recombinant cells; [3H]-Raclopride 4 nM; read-out: Ki hD2S
T3 construct: expressed in transfected cells; host or cells: CHO-K1
T3 sequence (P14416 1-414 isoform P14416-2): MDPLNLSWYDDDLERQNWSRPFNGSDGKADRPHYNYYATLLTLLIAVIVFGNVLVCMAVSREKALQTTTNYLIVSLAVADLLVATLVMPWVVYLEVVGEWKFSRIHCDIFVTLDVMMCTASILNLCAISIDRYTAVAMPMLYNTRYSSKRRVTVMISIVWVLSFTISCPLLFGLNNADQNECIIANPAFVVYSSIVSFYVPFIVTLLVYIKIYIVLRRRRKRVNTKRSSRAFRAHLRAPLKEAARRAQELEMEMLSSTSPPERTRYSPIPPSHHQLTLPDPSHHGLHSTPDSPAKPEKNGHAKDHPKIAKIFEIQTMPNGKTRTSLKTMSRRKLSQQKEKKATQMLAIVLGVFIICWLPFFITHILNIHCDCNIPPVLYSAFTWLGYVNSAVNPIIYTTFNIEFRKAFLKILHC
Method: as §1
• Receptor source: Recombinant mammalian cells (CHO-K1) • Radioligand: [^3H]-Raclopride (80.8 Ci/mmol) • Final ligand concentration: 4 nM • Non-specific determinant: 0.1 mM Haloperidol • Reference compound: Haloperidol • Positive control: Haloperidol Incubation Conditions:
as §3, with “120” for “0.5”, “NaCl, 5” for “EDTA, 10”, “KCl, 5 mM MgCl2, 1 mM EDTA” for “MgSO4, 0.1% Ascorbic acid”, “dopamine […]” for “5-HT1A”

Ki ([3]; cells printed in μM) [µM]	SMILES	Ki [1] [nM]	Ki [2] [nM]	Ki [3] [µM]	Ki [4] [nM]
–	COC(=O)N1CCN2C(=O)N(CCCCN3CCC(c4noc5cc(F)ccc45)CC3)C(=O)C[C@@H]2C1 [Example 35, 7-{4-[4-(6-Fluoro-benzo[d]isoxazol-3-yl)-piperidin-1-yl]-butyl}-6,8-dioxo-octahydro-pyrazino[1,2-c]pyrimidine-2-carboxylic acid methyl ester]	45.7	4.8	0.975	4.7
> 10	O=C1C[C@@H]2CCCN2C(=O)N1CCCN1CCC(c2noc3ccccc23)CC1 [Example 44, 2-[3-(4-Benzo[d]isoxazol-3-yl-piperidin-1-yl)-propyl]-tetrahydro-pyrrolo[1,2-c]pyrimidine-1,3-dione, oxalate]	531	59.9	–	119
–	O=C1C[C@@H]2CCCN2C(=O)N1CCCN1CCN(c2nsc3ccccc23)CC1 [Example 23, 2-[3-(4-benzo[d]isothiazol-3-yl-piperazin-1-yl)-propyl]tetrahydro-pyrrolo[1,2-c]pyrimidine-1,3-dione]	21.4	5.3	0.918	22.3
–	COC(=O)N1CCN2C(=O)N(CCCCN3CCN(c4nsc5ccccc45)CC3)C(=O)CC2C1 (stereo not shown) [Example 34, 7-[4-(4-Benzo[d]isothiazol-3-yl-piperazin-1-yl)-butyl]-6,8-dioxo-octahydro-pyrazino[1,2-c]pyrimidine-2-carboxylic acid methyl ester fumarate]	1.3	0.5	0.152	2.4
–	O=C1C[C@@H]2CCCCN2C(=O)N1CCCCN1CCC(c2noc3cc(F)ccc23)CC1 [Example 13, 2-{4-[4-(6-Fluoro-benzo[d]isoxazol-3-yl)-piperidin-1-yl]-butyl}-hexahydro-pyrido[1,2-c]pyrimidine-1,3-dione]	14.9	2.5	1.63	2.5
–	O=C1C[C@@H]2CCCN2C(=O)N1CCCCN1CCC(c2c[nH]c3ccc(F)cc23)CC1 [Example 7, 2-{4-[4-(5-Fluoro-1H-indol-3-yl)-piperidin-1-yl]-butyl}-tetrahydro-pyrrolo[1,2-c]pyrimidine-1,3-dione oxalate]	1.8	49.9	0.0385	4.5
–	O=C1C[C@H]2COCCN2C(=O)N1C[C@H]1CCCC[C@H]1CN1CCN(c2nsc3ccccc23)CC1 [Example 30, 7-[2-(4-Benzo[d]isothiazol-3-yl-piperazin-1-ylmethyl)-cyclohexylmethyl]-tetrahydro-pyrimido[6,1-c][1,4]oxazine-6,8-dione]	–	8.5	9.35	0.6
–	O=C1C[C@@H]2CCCN2C(=O)N1CCCN1CCC(c2c[nH]c3ccc(F)cc23)CC1 [Example 25, 2-{3-[4-(5-Fluoro-1H-indol-3-yl)-piperidin-1-yl]-propyl}-tetrahydro-pyrrolo[1,2-c]pyrimidine-1,3-dione]	58.6	195	0.298	23.8
–	COC(=O)N1CCN2C(=O)N(CCCCN3CCC(c4noc5cc(F)ccc45)CC3)C(=O)C[C@@H]2C1 [Example 36, 7-{4-[4-(6-Fluoro-benzo[d]isoxazol-3-yl)-piperidin-1-yl]-butyl}-6,8-dioxo-octahydro-pyrazino[1,2-c]pyrimidine-2-carboxylic acid methyl ester fumarate]	130	2.2	1.48	3.3
> 10	O=C1C[C@@H]2CCCN2C(=O)N1CCCCN1CCC(c2noc3ccccc23)CC1 [Example 42, 2-{4-[4-(Benzo[d]isoxazol-3-yl)-piperidin-1-yl]-butyl}-tetrahydro-pyrrolo[1,2-c]pyrimidine-1,3-dione, oxalate]	8.7	11.6	–	37.3
–	CC(=O)N1CCN2C(=O)N(CCCCN3CCN(c4nsc5ccccc45)CC3)C(=O)C[C@@H]2C1 [Example 37, 2-Acetyl-7-[4-(4-benzo[d]isothiazol-3-yl-piperazin-1-yl)-butyl]-hexahydro-pyrazino[1,2-c]pyrimidine-6,8-dione]	0.3	1.5	1.1	8.2
–	O=C(OCc1ccccc1)N1CCN2C(=O)N(CCCCN3CCN(c4nsc5ccccc45)CC3)C(=O)C[C@@H]2C1 [Example 19, 7-[4-(4-Benzo[d]isothiazol-3-yl-piperazin-1-yl)-butyl]-6,8-dioxo-octahydro-pyrazino[1,2-c]pyrimidine-2-carboxylic acid benzyl ester]	1.1	0.8	0.126	3.2
–	CC(=O)N1CCN2C(=O)N(CCCCN3CCN(c4nsc5ccccc45)CC3)C(=O)C[C@@H]2C1 [Example 38, 2-Acetyl-7-[4-(4-benzo[d]isothiazol-3-yl-piperazin-1-yl)-butyl]-hexahydro-pyrazino[1,2-c]pyrimidine-6,8-dione fumarate]	–	2.2	0.953	4.5
–	O=C1C[C@@H]2CCCCN2C(=O)N1CCCCN1CCN(c2nsc3ccccc23)CC1 [Example 12, 2-[4-(4-Benzo[d]isothiazol-3-yl-piperazin-1-yl)-butyl]-hexahydro-pyrido[1,2-c]pyrimidine-1,3-dione]	0.1	0.6	0.181	0.6
–	CC(C)N1CCN2C(=O)N(CCCCN3CCN(c4nsc5ccccc45)CC3)C(=O)C[C@H]2C1 [Example 40, 7-[4-(4-Benzo[d]isothiazol-3-yl-piperazin-1-yl)-butyl]-2-isopropyl-hexahydro-pyrazino[1,2-c]pyrimidine-6,8-dione fumarate]	0.5	1.6	1.25	5
–	O=C(OCc1ccccc1)N1CCN2C(=O)N(CCCCN3CCC(c4noc5cc(F)ccc45)CC3)C(=O)CC2C1 (stereo not shown) [Example 22, 7-{4-[4-(6-Fluoro-benzo[d]isoxazol-3-yl)-piperidin-1-yl]-butyl}-6,8-dioxo-octahydro-pyrazino[1,2-c]pyrimidine-2-carboxylic acid benzyl ester fumarate]	84.1	1.5	0.279	2.5
–	COc1ccc2[nH]cc(C3CCN(CCCCN4C(=O)C[C@@H]5CCCCN5C4=O)CC3)c2c1 [Example 16, 2-{4-[4-(5-Methoxy-1H-indol-3-yl)-piperidin-1-yl]-butyl}-hexahydro-pyrido[1,2-c]pyrimidine-1,3-dione]	0.6	1210	0.427	59.1

SMILES	Ki ([3]; cells printed in μM) [µM]	Ki [1] [nM]	Ki [2] [nM]	Ki [3] [µM]	Ki [4] [nM]
O=C1C[C@@H]2CCCN2C(=O)N1CCCN1CCC(c2noc3cc(F)ccc23)CC1 [Example 24, 2-{3-[4-(6-Fluoro-benzo[d]isoxazol-3-yl)-piperidin-1-yl]-propyl}-tetrahydro-pyrrolo[1,2-c]pyrimidine-1,3-dione]	> 10	1690	7.1	–	103
